tested on: HCV 1b genotype; assay: HCV Replicon assay (HCV-neo replicon cells), 1b genotype; format: cell-based; conditions: Hepatitis C virus; HCV 1b genotype replicon; numeric value; read-out: 1b EC50 (in μM or range)
Method: An HCV Replicon assay was utilized in the present disclosure, and was prepared, conducted and validated as described in commonly owned PCT/US2006/022197 and in O'Boyle et al., Antimicrob. Agents Chemother., 49(4):1346-1353 (April 2005). Assay methods incorporating luciferase reporters have also been used as described (Apath.com).
HCV-neo replicon cells and replicon cells containing mutations in the NS5A region were used to test the currently described family of compounds. The compounds were determined to have more than 10-fold less inhibitory activity on cells containing mutations than wild-type cells. Thus, the compounds of the present disclosure can be effective in inhibiting the function of the HCV NS5A protein and are understood to be as effective in combinations as previously described in application PCT/US2006/022197 and commonly owned WO 04/014852. Further, the compounds of the present disclosure can be effective against the HCV 1b genotype. It should also be understood that the compounds of the present disclosure can inhibit multiple genotypes of HCV. […] In one embodiment compounds of the present disclosure are inhibitory versus 1a, 1b, 2a, 2b, 3a, 4a, and 5a genotypes. […] The compounds of the present disclosure may inhibit HCV by mechanisms in addition to or other than NS5A inhibition. In one embodiment the compounds of the present disclosure inhibit HCV replicon and in another embodiment the compounds of the present disclosure inhibit NS5A.

First: COC(=O)N[C@H](C(=O)N1CCC[C@H]1c1ncc(-c2ccc(-c3ccc(-c4cnc([C@@H]5CCCN5C(=O)[C@@H](NC(=O)OC)C(C)C)[nH]4)s3)s2)[nH]1)C(C)C [Example 6, Methyl ((1S)-1-(((2S)-2-(4-(5′-(2-((2S)-1-((2S)-2-((methoxycarbonyl)amino)-3-methylbutanoyl)-2-pyrrolidinyl)-1H-imidazol-4-yl)-2,2′-bithiophen-5-yl)-1H-imidazol-2-yl)-1-pyrrolidinyl)carbonyl)-2-methylpropyl)carbamate]
Second: COC(=O)N[C@@H](C(=O)N1CCC[C@H]1c1ncc(-c2ncc(-c3cnc(-c4cnc([C@@H]5CCCN5C(=O)[C@H](NC(=O)OC)C(C)C)[nH]4)s3)s2)[nH]1)C(C)C [Example 11, Methyl ((1R)-1-(((2S)-2-(4-(2′-(2-((2S)-1-((2R)-2-((methoxycarbonyl)amino)-3-methylbutanoyl)-2-pyrrolidinyl)-1H-imidazol-4-yl)-5,5′-bi-1,3-thiazol-2-yl)-1H-imidazol-2-yl)-1-pyrrolidinyl)carbonyl)-2-methylpropyl)carbamate]
The EC50 of the first is far lower: 0.003 nM for the first, 5860 nM for the second.

`COCC[C@H](NC(=O)OC)C(=O)N1CCC[C@H]1c1ncc(-c2cnc(-c3ncc(-c4cnc([C@@H]5CCCN5C(=O)[C@H](CCOC)NC(=O)OC)[nH]4)s3)s2)[nH]1` [Example 15, Methyl ((1S)-3-methoxy-1-(((2S)-2-(4-(5′-(2-((2S)-1-(N-(methoxycarbonyl)-O-methyl-L-homoseryl)-2-pyrrolidinyl)-1H-imidazol-4-yl)-2,2′-bi-1,3-thiazol-5-yl)-1H-imidazol-2-yl)-1-pyrrolidinyl)carbonyl)propyl)carbamate] was tested, and the EC50 was 2.38 nM.

same assay, conditions: Hepatitis C virus; HCV 1b genotype replicon; value given as range class; read-out: 1b EC50 (in μM or range)

First: COC(=O)N[C@@H](C)C(=O)N1CCC[C@H]1c1ncc(-c2ccc(-c3ccc(-c4cnc([C@@H]5CCCN5C(=O)[C@H](C)NC(=O)OC)[nH]4)s3)s2)[nH]1 [Example 1, Methyl ((1S)-2-((2S)-2-(4-(5′-(2-((2S)-1-(N-(methoxycarbonyl)-L-alanyl)-2-pyrrolidinyl)-1H-imidazol-4-yl)-2,2′-bithiophen-5-yl)-1H-imidazol-2-yl)-1-pyrrolidinyl)-1-methyl-2-oxoethyl)carbamate]
Second: COC(=O)N[C@@H](C(=O)N1CCC[C@H]1c1ncc(-c2ccc(-c3ccc(-c4cnc([C@@H]5CCCN5C(=O)[C@H](NC(=O)OC)C(C)C)[nH]4)s3)s2)[nH]1)C(C)C [Example 3, Methyl ((1R)-1-(((2S)-2-(4-(5′-(2-((2S)-1-((2R)-2-((methoxycarbonyl)amino)-3-methylbutanoyl)-2-pyrrolidinyl)-1H-imidazol-4-yl)-2,2′-bithiophen-5-yl)-1H-imidazol-2-yl)-1-pyrrolidinyl)carbonyl)-2-methylpropyl)carbamate]
The EC50 of the first is lower: less than 1 nM for the first, 10 to 10000 nM for the second. The first is the more potent here.

First: COCC[C@H](NC(=O)OC)C(=O)N1CCC[C@H]1c1ncc(-c2ccc(-c3ccc(-c4cnc([C@@H]5CCCN5C(=O)[C@H](CCOC)NC(=O)OC)[nH]4)s3)s2)[nH]1 [Example 2, Methyl ((1S)-3-methoxy-1-(((2S)-2-(4-(5′-(2-((2S)-1-(N-(methoxycarbonyl)-O-methyl-L-homoseryl)-2-pyrrolidinyl)-1H-imidazol-4-yl)-2,2′-bithiophen-5-yl)-1H-imidazol-2-yl)-1-pyrrolidinyl)carbonyl)propyl)carbamate]
Second: COCC[C@H](NC(=O)OC)C(=O)N1CCC[C@H]1c1ncc(-c2ncc(-c3cnc(-c4cnc([C@@H]5CCCN5C(=O)[C@H](CCOC)NC(=O)OC)[nH]4)s3)s2)[nH]1 [Example 13, Methyl ((1S)-3-methoxy-1-(((2S)-2-(4-(2′-(2-((2S)-1-(N-(methoxycarbonyl)-O-methyl-L-homoseryl)-2-pyrrolidinyl)-1H-imidazol-4-yl)-5,5′-bi-1,3-thiazol-2-yl)-1H-imidazol-2-yl)-1-pyrrolidinyl)carbonyl)propyl)carbamate]
The EC50 of the first is lower: less than 1 nM for the first, 10 to 10000 nM for the second. The first is the more potent here.

`COC(=O)N[C@@H](C(=O)N1CCC[C@H]1c1ncc(-c2ccc(-c3ccc(-c4cnc([C@@H]5CCCN5C(=O)[C@H](NC(=O)OC)c5ccccc5)[nH]4)s3)s2)[nH]1)c1ccccc1` [Example 4, Dimethyl (2,2′-bithiene-5,5′-diylbis(1H-imidazole-4,2-diyl(2S)-2,1-pyrrolidinediyl((1R)-2-oxo-1-phenyl-2,1-ethanediyl)))biscarbamate] and `COC(=O)N[C@@H](C(=O)N1CCC[C@H]1c1ncc(-c2cnc(-c3ncc(-c4cnc([C@@H]5CCCN5C(=O)[C@H](NC(=O)OC)c5ccccc5)[nH]4)s3)s2)[nH]1)c1ccccc1` [Example 16, Dimethyl (2,2′-bi-1,3-thiazole-5,5′-diylbis(1H-imidazole-4,2-diyl(2S)-2,1-pyrrolidinediyl((1R)-2-oxo-1-phenyl-2,1-ethanediyl)))biscarbamate] cannot be ordered by EC50: less than 1 nM for the first, less than 1 nM for the second.

`CN(C)[C@@H](C(=O)N1CCC[C@H]1c1ncc(-c2ccc(-c3ccc(-c4cnc([C@@H]5CCCN5C(=O)[C@@H](c5ccccc5)N(C)C)[nH]4)s3)s2)[nH]1)c1ccccc1` [Example 5, (1R′,1′R)-2,2′-(2,2′-Bithiene-5,5′-diylbis(1H-imidazole-4,2-diyl(2S)-2,1-pyrrolidinediyl))bis(N,N-dimethyl-2-oxo-1-phenylethanamine)] and `CN(C)[C@@H](C(=O)N1CCC[C@H]1c1ncc(-c2cnc(-c3ncc(-c4cnc([C@@H]5CCCN5C(=O)[C@@H](c5ccccc5)N(C)C)[nH]4)s3)s2)[nH]1)c1ccccc1` [Example 17, (1R,1′R)-2,2′-(2,2′-Bi-1,3-thiazole-5,5′-diylbis(1H-imidazole-4,2-diyl(2S)-2,1-pyrrolidinediyl))bis(N,N-dimethyl-2-oxo-1-phenylethanamine)] cannot be ordered by EC50: less than 1 nM for the first, less than 1 nM for the second.

`COC(=O)N[C@H](C(=O)N1CCC[C@H]1c1ncc(-c2ccc(-c3ccc(-c4cnc([C@@H]5CCCN5C(=O)[C@@H](NC(=O)OC)C5CC5)[nH]4)s3)s2)[nH]1)C1CC1` [Example 7, Dimethyl (2,2′-bithiene-5,5′-diylbis(1H-imidazole-4,2-diyl(2S)-2,1-pyrrolidinediyl((1S)-1-cyclopropyl-2-oxo-2,1-ethanediyl)))biscarbamate] and `COC(=O)N[C@H](C(=O)N1CCC[C@H]1c1ncc(-c2cnc(-c3ncc(-c4cnc([C@@H]5CCCN5C(=O)[C@@H](NC(=O)OC)C(C)C)[nH]4)s3)s2)[nH]1)C(C)C` [Example 14, Methyl ((1S)-1-(((2S)-2-(4-(5′-(2-((2S)-1-((2S)-2-((methoxycarbonyl)amino)-3-methylbutanoyl)-2-pyrrolidinyl)-1H-imidazol-4-yl)-2,2′-bi-1,3-thiazol-5-yl)-1H-imidazol-2-yl)-1-pyrrolidinyl)carbonyl)-2-methylpropyl)carbamate] cannot be ordered by EC50: less than 1 nM for the first, less than 1 nM for the second.

`CN(C)[C@@H](C(=O)N1CCC[C@H]1c1ncc(-c2ncc(-c3cnc(-c4cnc([C@@H]5CCCN5C(=O)[C@@H](c5ccccc5)N(C)C)[nH]4)s3)s2)[nH]1)c1ccccc1` [Example 8, (1R,1′R)-2,2′-(5,5′-Bi-1,3-thiazole-2,2′-diylbis(1H-imidazole-4,2-diyl(2S)-2,1-pyrrolidinediyl))bis(N,N-dimethyl-2-oxo-1-phenylethanamine)] and `COC(=O)N[C@@H](C(=O)N1CCC[C@H]1c1ncc(-c2ncc(-c3cnc(-c4cnc([C@@H]5CCCN5C(=O)[C@H](NC(=O)OC)c5ccccc5)[nH]4)s3)s2)[nH]1)c1ccccc1` [Example 9, Dimethyl (5,5′-bi-1,3-thiazole-2,2′-diylbis(1H-imidazole-4,2-diyl(2S)-2,1-pyrrolidinediyl((1R)-2-oxo-1-phenyl-2,1-ethanediyl)))biscarbamate] cannot be ordered by EC50: less than 1 nM for the first, less than 1 nM for the second.

First: COC(=O)N[C@H](C(=O)N1CCC[C@H]1c1ncc(-c2ncc(-c3cnc(-c4cnc([C@@H]5CCCN5C(=O)[C@@H](NC(=O)OC)C(C)C)[nH]4)s3)s2)[nH]1)C(C)C [Example 10, Methyl ((1S)-1-(((2S)-2-(4-(2′-(2-((2S)-1-((2S)-2-((methoxycarbonyl)amino)-3-methylbutanoyl)-2-pyrrolidinyl)-1H-imidazol-4-yl)-5,5′-bi-1,3-thiazol-2-yl)-1H-imidazol-2-yl)-1-pyrrolidinyl)carbonyl)-2-methylpropyl)carbamate]
Second: COC(=O)N[C@@H](C(=O)N1CCC[C@H]1c1ncc(-c2cnc(-c3ncc(-c4cnc([C@@H]5CCCN5C(=O)[C@H](NC(=O)OC)C(C)C)[nH]4)s3)s2)[nH]1)C(C)C [Example 18]
The EC50 of the first is lower: 1 to 10 nM for the first, 10 to 10000 nM for the second. The first is the more potent here.

`COC(=O)N[C@H](C(=O)N1CCC[C@H]1c1ncc(-c2ncc(-c3cnc(-c4cnc([C@@H]5CCCN5C(=O)[C@@H](NC(=O)OC)[C@@H](C)OC)[nH]4)s3)s2)[nH]1)[C@@H](C)OC` [Example 12, Methyl ((1S,2R)-2-methoxy-1-(((2S)-2-(4-(2′-(2-((2S)-1-(N-(methoxycarbonyl)-O-methyl-L-threonyl)-2-pyrrolidinyl)-1H-imidazol-4-yl)-5,5′-bi-1,3-thiazol-2-yl)-1H-imidazol-2-yl)-1-pyrrolidinyl)carbonyl)propyl)carbamate] gave an EC50 of 10 to 10000 nM.

From US8618153B2, “Hepatitis C virus inhibitors” (Bristol-Myers Squibb Company, priority 2009, dated 2013)
